Laboratory results taken from US12559505B2, “IDH mutant inhibitor and use thereof” (WIGEN BIOMEDICINE TECHNOLOGY (SHANGHAI) CO., LTD., priority 2020, dated 2026).
Like-named read-outs stand apart in the source and are kept apart here.

Columns and labels:
[1] = target: T1, IDH R132C (Homo sapiens, UniProt O75874, R132C); assay: Detection of 2-HG in supernatant of U87-IDH R132C cells; type: cell-based; settings: 72 h, LC-MS-MS, vs control; for inhibition at 0.001 µM: 1 nM compound, read-out: Inhibition rate of compounds on 2-HG in the supernatant of U87-IDH R132C cells, 1 nM; for inhibition at 0.01 µM: 10 nM compound, read-out: Inhibition rate of compounds on 2-HG in the supernatant of U87-IDH R132C cells, 10 nM; for inhibition at 0.1 µM: 100 nM compound, read-out: Inhibition rate of compounds on 2-HG in the supernatant of U87-IDH R132C cells, 100 nM
T1 construct: expressed in transfected cells; host or cells: U87 cells
Procedure: U87 cells overexpressing the IDH R132C mutation were seeded in a 48-well plate at 50,000 cells/well. After the cells were incubated overnight for adhesion, the supernatant was removed. The cell culture media containing serially diluted compounds were added, and the cells were incubated for 72 h. After 72 h, the cultures were collected and diluted 10-fold with water, and acetonitrile was added to extract the metabolites. The 2-HG content in the cultures was analyzed by LC-MS-MS, and the percentage inhibition of compounds on 2-HG in the supernatant was calculated as compared with the control.

[2] = test system: 2-HG in HT1080 tumor tissues; assay: Detection of 2-HG in HT1080 tumor tissues of nude mice; type: in vivo; settings: Mus musculus, HT-1080, sc, subcutaneous HT1080, 20 mg/kg
Procedure: Nude mice were inoculated subcutaneously with 1×10^6 HT1080 cells. When the tumor volume reached 100-150 mm^3, the mice were randomly grouped into solvent control group and compounds 1, 70, 79, 85, 96, 139, 157 and LY-3410738 20 mg/kg groups. The tumors were collected three days and seven days after continuous administration, weighed, digested with a digestion solution and then homogenized. The level of 2-HG in the tumor tissues were determined by LC-MS-MS. The percentage inhibition of compounds on 2-HG in tumor tissues was calculated as compared with the control.

[3] = 72 h, three days of continuous administration, read-out: Inhibition rate of compounds on 2-HG in HT1080 tumor tissues, 3 days
[4] = 168 h, seven days of continuous administration, read-out: Inhibition rate of compounds on 2-HG in HT1080 tumor tissues, 7 days

T1 sequence (O75874 whole entry R132C): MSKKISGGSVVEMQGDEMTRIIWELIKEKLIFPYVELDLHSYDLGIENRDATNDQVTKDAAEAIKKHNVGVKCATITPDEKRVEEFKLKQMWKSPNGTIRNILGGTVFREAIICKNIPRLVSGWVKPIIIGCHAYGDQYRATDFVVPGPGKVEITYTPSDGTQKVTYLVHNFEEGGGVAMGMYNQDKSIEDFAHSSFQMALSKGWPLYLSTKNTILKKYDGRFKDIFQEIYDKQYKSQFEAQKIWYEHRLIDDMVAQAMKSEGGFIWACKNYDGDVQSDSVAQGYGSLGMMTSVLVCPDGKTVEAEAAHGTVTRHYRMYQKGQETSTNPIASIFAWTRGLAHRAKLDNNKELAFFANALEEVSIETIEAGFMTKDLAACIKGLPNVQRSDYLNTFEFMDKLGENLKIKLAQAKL

SMILES	inhibition at 0.001 µM [1] [%]	inhibition at 0.01 µM [1] [%]	inhibition at 0.1 µM [1] [%]	inhibition in vivo at 20 mg/kg [2, 3] [%]	inhibition in vivo at 20 mg/kg [2, 4] [%]
C=CC(=O)N1CC2(C1)CN(C(CC1CC1)c1ccc([C@H](C)Nc3ncc4c(n3)N(CC)C(=O)OC4)cc1)C2 (stereo partly shown) [Compound 1]	30 to 60	> 90	> 90	54 ± 18	95 ± 0.5
C=CC(=O)N1CCN(C(CC23CC(C2)C3)c2ccc([C@H](C)Nc3ncc4c(n3)N(CC)C(=O)NC4)cc2)CC1 (stereo partly shown) [Compound 70]	60 to 90	> 90	> 90	62 ± 8	92 ± 5
C=CC(=O)N1CCN(C(CC2CC2)c2ccc([C@H](C)Nc3ncc4c(n3)N(C(C)C)C(=O)NC4)cc2)CC1 (stereo partly shown) [Compound 79]	30 to 60	60 to 90	> 90	50 ± 3	97 ± 1
C=CC(=O)N1CCN(C(CC2CC2)c2ccc([C@H](C)Nc3ncc4cnc(=O)n(C(C)C)c4n3)cc2)CC1 (stereo partly drawn) [Compound 85, 7-(((1S)-1-(4-(1-(4-acryloylpiperazin-1-yl)-2-cyclopropylethyl)phenyl)ethyl)amino)-1-isopropylpyrimidine[4,5-d]pyrimidine-2(1H)-one]	60 to 90	> 90	> 90	57 ± 6	94 ± 3
C=CC(=O)NC1CCN(C(CC2CC2)c2ccc([C@H](C)Nc3ncc4cnc(=O)n(C(C)C)c4n3)cc2)CC1 (stereo partly shown) [Compound 96]	–	–	–	29 ± 38	78 ± 4
C=CC(=O)N1CCN(C(CC2CC2)c2ccc([C@H](C)Nc3ncc4cnc(=O)n(CC)c4n3)cc2)CC1 (stereo partly shown) [Compound 114]	60 to 90	> 90	> 90	–	–
C=CC(=O)N1CCN(C(CC)c2ccc([C@H](C)Nc3ncc4cnc(=O)n(CC)c4n3)cc2)CC1 (stereo partly shown) [Compound 115]	30 to 60	> 90	> 90	–	–
C=CC(=O)N1CCN(C(CC(C)C)c2ccc([C@H](C)Nc3ncc4cnc(=O)n(CC)c4n3)cc2)CC1 (stereo partly shown) [Compound 116]	60 to 90	> 90	> 90	–	–
C=CC(=O)N1CCN(C(CC(C)(C)C)c2ccc([C@H](C)Nc3ncc4cnc(=O)n(C(C)C)c4n3)cc2)CC1 (stereo partly shown) [Compound 124]	30 to 60	60 to 90	> 90	–	–
C=CC(=O)N1CCN(C(CC2CCC2)c2ccc([C@H](C)Nc3ncc4cnc(=O)n(C(C)C)c4n3)cc2)CC1 (stereo partly shown) [Compound 125]	30 to 60	60 to 90	> 90	–	–
C=CC(=O)N1CCN(C(CC2(C)CC2)c2ccc([C@H](C)Nc3ncc4cnc(=O)n(CC)c4n3)cc2)CC1 (stereo partly shown) [Compound 131]	60 to 90	> 90	> 90	–	–
C=CC(=O)N1CCN(C(CC2CCC2)c2ccc([C@H](C)Nc3ncc4c(n3)N(CC)C(=O)OC4)cc2)CC1 (stereo partly drawn) [Compound 139, 7-(((1S)-1-(4-(1-(4-acryloylpiperazin-1-yl)-2-cyclobutylethyl)-phenyl)ethyl)amino)-1-ethyl-1,4-dihydro-2H-pyrimido[4,5-d][1,3]oxazin-2-one]	–	–	–	57 ± 1.8	99 ± 0.4
C=CC(=O)N1CCN(C(CCC)c2ccc([C@H](C)Nc3ncc4c(n3)N(CC)C(=O)OC4)cc2)CC1 (stereo partly shown) [Compound 141]	30 to 60	60 to 90	> 90	–	–
C=CC(=O)N1CCN(C(CC2CCC2)c2ccc([C@H](C)Nc3ncc4c(n3)N(C(C)C)C(=O)OC4)cc2)CC1 (stereo partly shown) [Compound 143]	30 to 60	60 to 90	> 90	–	–
C=CC(=O)N1CCN(C(CC(C)(C)C)c2ccc([C@H](C)Nc3ncc4c(n3)N(C(C)C)C(=O)OC4)cc2)CC1 (stereo partly shown) [Compound 146]	30 to 60	60 to 90	> 90	–	–
C=CC(=O)N1CCN(C(CC2CC2)c2ccc([C@H](C)Nc3ncc4c(n3)N(C(C)C)C(=O)OC4)cc2)CC1 (stereo partly shown) [Compound 147]	60 to 90	> 90	> 90	–	–
C=CC(=O)N1CCN(C(CC2CC2)c2ccc(C3(Nc4ncc5c(n4)N(C(C)C)C(=O)OC5)CC3)cc2)CC1 (stereo not shown) [Compound 148]	< 30	60 to 90	> 90	–	–
C=CC(=O)N1CCN(C(CC2CC2)c2ccc(C3(Nc4ncc5c(n4)N(CC)C(=O)OC5)CC3)cc2)CC1 (stereo not shown) [Compound 152]	30 to 60	> 90	> 90	–	–
C=CC(=O)N1CCN(C(CC2CCC2)c2ccc(C3(Nc4ncc5c(n4)N(CC)C(=O)OC5)CC3)cc2)CC1 (stereo not shown) [Compound 153]	30 to 60	60 to 90	> 90	–	–
C=CC(=O)N1CCN(C(CC2(C)CC2)c2ccc([C@H](C)Nc3ncc4c(n3)N(CC)C(=O)OC4)cc2)CC1 (stereo partly shown) [Compound 156]	60 to 90	> 90	> 90	–	–
C=CC(=O)N1CCN(C(CC23CC(C2)C3)c2ccc([C@H](C)Nc3ncc4c(n3)N(CC)C(=O)OC4)cc2)CC1 (stereo partly shown) [Compound 157]	60 to 90	> 90	> 90	60 ± 8	90 ± 7
N#Cc1ccnc(N2C(=O)CC[C@H]2C(=O)N(c2cncc(F)c2)[C@H](C(=O)NC2CC(F)(F)C2)c2ccccc2Cl)c1 [Ivosidenib, ivosidenib, reference compound]	< 30	< 30	60 to 90	–	–

Further lines, with some results ahead:

inhibition at 0.001 µM [1] [%]	inhibition at 0.01 µM [1] [%]	inhibition at 0.1 µM [1] [%]	SMILES	inhibition in vivo at 20 mg/kg [2, 3] [%]	inhibition in vivo at 20 mg/kg [2, 4] [%]
30 to 60	> 90	> 90	C=CC(=O)N1CCN([C@H](CC2CC2)c2ccc([C@H](C)Nc3ncc4cnc(=O)n(CC)c4n3)cc2)CC1 [Compound 114-2]	–	–
60 to 90	> 90	> 90	C=CC(=O)N1CCN([C@@H](CC)c2ccc([C@H](C)Nc3ncc4cnc(=O)n(CC)c4n3)cc2)CC1 [Compound 116-1]	–	–
30 to 60	60 to 90	> 90	C=CC(=O)N1CCN([C@H](CC)c2ccc([C@H](C)Nc3ncc4cnc(=O)n(CC)c4n3)cc2)CC1 [Compound 116-2]	–	–
60 to 90	> 90	> 90	C=CC(=O)N1CCN([C@@H](CC2CC2)c2ccc([C@H](C)Nc3ncc4c(n3)N(C(C)C)C(=O)OC4)cc2)CC1 [Compound 147-1]	–	–
30 to 60	60 to 90	> 90	C=CC(=O)N1CCN([C@H](CC2CC2)c2ccc([C@H](C)Nc3ncc4c(n3)N(C(C)C)C(=O)OC4)cc2)CC1 [Compound 147-2]	–	–
60 to 90	> 90	> 90	C=CC(=O)N1CCN([C@@H](CC23CC(C2)C3)c2ccc([C@H](C)Nc3ncc4c(n3)N(CC)C(=O)OC4)cc2)CC1 [Compound 157-1]	–	–
30 to 60	60 to 90	> 90	C=CC(=O)N1CCN([C@H](CC23CC(C2)C3)c2ccc([C@H](C)Nc3ncc4c(n3)N(CC)C(=O)OC4)cc2)CC1 [Compound 157-2]	–	–
30 to 60	> 90	> 90	C=CC(=O)N1CCN([C@@H](CC2CC2)c2ccc([C@H](C)Nc3ncc4c(n3)N(CC)C(=O)OC4)cc2)CC1 [LY-3410738, reference compound]	58 ± 11	88 ± 12
